Source: US20130315843A1, “COMPOSITION FOR REDUCTION OF TRPA1 AND TRPV1 SENSATIONS” (priority 2012, published 2013)

target: human TRPV1 (Homo sapiens, UniProt Q8NER1); assay: FLIPR Ca2+ assay, reduction of L-Menthol activation of TRPV1; conditions: antagonist 100 μM against 1 mM L-Menthol
Sequence (Q8NER1 whole entry): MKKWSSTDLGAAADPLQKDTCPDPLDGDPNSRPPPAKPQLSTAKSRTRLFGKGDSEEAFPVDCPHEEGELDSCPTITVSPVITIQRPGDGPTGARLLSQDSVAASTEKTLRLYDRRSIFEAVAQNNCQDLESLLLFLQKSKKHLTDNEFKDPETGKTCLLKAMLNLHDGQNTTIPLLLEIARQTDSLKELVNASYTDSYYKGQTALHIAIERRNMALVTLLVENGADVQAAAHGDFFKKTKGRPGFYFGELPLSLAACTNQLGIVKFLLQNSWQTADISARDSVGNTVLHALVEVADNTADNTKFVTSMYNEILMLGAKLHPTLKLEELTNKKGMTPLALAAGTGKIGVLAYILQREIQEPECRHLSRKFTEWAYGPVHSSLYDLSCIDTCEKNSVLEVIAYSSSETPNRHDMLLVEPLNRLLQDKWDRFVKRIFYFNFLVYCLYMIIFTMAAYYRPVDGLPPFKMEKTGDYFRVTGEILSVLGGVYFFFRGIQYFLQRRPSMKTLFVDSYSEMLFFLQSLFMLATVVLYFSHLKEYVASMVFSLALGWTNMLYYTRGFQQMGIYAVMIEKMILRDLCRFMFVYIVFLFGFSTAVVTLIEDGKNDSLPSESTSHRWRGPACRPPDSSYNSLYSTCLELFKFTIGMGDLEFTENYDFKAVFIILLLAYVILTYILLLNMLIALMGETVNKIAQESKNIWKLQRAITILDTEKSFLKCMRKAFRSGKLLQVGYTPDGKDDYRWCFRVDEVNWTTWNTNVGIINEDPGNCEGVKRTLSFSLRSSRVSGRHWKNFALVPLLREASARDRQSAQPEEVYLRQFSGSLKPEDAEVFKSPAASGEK

Molecule	Average Ca2+ Counts [Counts]	% Reduction of L-Menthol TRPV1 Activation [%]
CC(O)c1ccccc1 (racemic) [(+−)-1-phenylethanol]	1087.7	–
CC(C)=CCCC(C)CCO (racemic) [(+−)-beta;-citronellol]	1501.3	22.5
CCCCCCCCCCO [1-decanol]	1175.7	–
COc1ccc(C)cc1C [2,4-dimethylanisole]	1255.3	–
COc1cccc(OC)c1O [2,6-dimethoxyphenol]	1365.0	–
CC(=O)c1cccn1C [2-acetyl-1-methylpyrrole]	1254.0	–
CCc1occc(=O)c1O [2-ethyl-3-hydroxy-4h-pyran-4-one]	1095.3	–
SCCc1cnccn1 [2-pyrazinylethanethiol]	992.0	–
CCC(C)C1CCCCC1=O (stereo not drawn) [2-sec.-butylcyclohexanone]	1352.3	–
CC(O)C(C)S (stereo not drawn) [3-mercapto-2-butanol]	1008.3	–
CCOc1ccc(C=O)cc1 [4-ethoxybenzaldehyde]	1200.0	–
COc1ccc(C(C)=O)cc1 [4′-methoxyacetophenone]	1162.0	–
CC(=O)OCC1=CCC2CC1C2(C)C (stereo not drawn) [6,6-dimethylbicyclo[3.1.1]hept-2-ene-2-methyl acetate]	1448.3	24.9
O=C1O[C@H]([C@@H](O)CO)C([O-])=C1O.[Na+] [(+)-sodium 1-ascorbate]	2961.0	26.6
C[C@@H](CO)c1ccccc1 [(r)-(+)-2-phenyl-1-propanol]	1414.0	–
CCCCOC(=O)C(C)CC (stereo not drawn) [butyl 2-methylbutyrate]	1233.7	–
C/C=C/C(=O)OCC/C=C\CC [crotonic acid cis-3-hexen-1-yl ester]	1150.0	–
CCOC(=O)C1OC1(C)c1ccccc1 (stereo not drawn) [empg]	1164.0	38.1
CCC1CCC(=O)O1 (stereo not drawn) [gamma-caprolactone]	1084.3	–
CCCCCCCCCCCC(=O)OC [methyl laurate]	1199.7	–
CCCCC/C=C/C(=O)OC [methyl trans-2-octenoate]	1538.7	–
C/C=C(/C)C1CCC(C)(C)O1 (stereo not drawn) [ocimene quintoxide]	1236.3	34.7
CCC(O)c1ccccc1 (stereo not drawn) [phenylpropanol (1-phenyl 1-propanol), 1-phenyl 1-propanol]	1218.3	–
Cc1ccc(C(C)C)c(O)c1 [thymol]	1331.3	–
CCC/C=C/C(OCC)OCC [trans-2-hexen-1-al diethyl acetal]	1169.0	–
d-(−)-lactic acid	1093.7	41.3

same assay, conditions: read-out: % Reduction of L-Menthol TRPV1 Activation

Molecule	inhibition at 100 µM [%]
CC(O)c1ccccc1 (racemic) [(+−)-1-phenylethanol]	41.6
CCCCCCCCCCO [1-decanol]	37.5
COc1ccc(C)cc1C [2,4-dimethylanisole]	33.9
COc1cccc(OC)c1O [2,6-dimethoxyphenol]	28.8
CC(=O)c1cccn1C [2-acetyl-1-methylpyrrole]	33.9
CCc1occc(=O)c1O [2-ethyl-3-hydroxy-4h-pyran-4-one]	41.3
SCCc1cnccn1 [2-pyrazinylethanethiol]	46
CCC(C)C1CCCCC1=O (stereo not drawn) [2-sec.-butylcyclohexanone]	29.4
CC(O)C(C)S (stereo not drawn) [3-mercapto-2-butanol]	45.3
CCOc1ccc(C=O)cc1 [4-ethoxybenzaldehyde]	36.4
COc1ccc(C(C)=O)cc1 [4′-methoxyacetophenone]	38.2
C[C@@H](CO)c1ccccc1 [(r)-(+)-2-phenyl-1-propanol]	26.5
CCCCOC(=O)C(C)CC (stereo not drawn) [butyl 2-methylbutyrate]	34.9
C/C=C/C(=O)OCC/C=C\CC [crotonic acid cis-3-hexen-1-yl ester]	38.7
CCC1CCC(=O)O1 (stereo not drawn) [gamma-caprolactone]	41.8
CCCCCCCCCCCC(=O)OC [methyl laurate]	36.4
CCCCC/C=C/C(=O)OC [methyl trans-2-octenoate]	20.7
CCC(O)c1ccccc1 (stereo not drawn) [phenylpropanol (1-phenyl 1-propanol), 1-phenyl 1-propanol]	35.6
Cc1ccc(C(C)C)c(O)c1 [thymol]	30.3
CCC/C=C/C(OCC)OCC [trans-2-hexen-1-al diethyl acetal]	37.9

target: human TRPA1 (Homo sapiens, UniProt O75762); assay: FLIPR Ca2+ assay, reduction of hydrogen peroxide activation of TRPA1; type: cell-based; design: expressed in transfected cells; conditions: not given
Sequence (O75762 whole entry): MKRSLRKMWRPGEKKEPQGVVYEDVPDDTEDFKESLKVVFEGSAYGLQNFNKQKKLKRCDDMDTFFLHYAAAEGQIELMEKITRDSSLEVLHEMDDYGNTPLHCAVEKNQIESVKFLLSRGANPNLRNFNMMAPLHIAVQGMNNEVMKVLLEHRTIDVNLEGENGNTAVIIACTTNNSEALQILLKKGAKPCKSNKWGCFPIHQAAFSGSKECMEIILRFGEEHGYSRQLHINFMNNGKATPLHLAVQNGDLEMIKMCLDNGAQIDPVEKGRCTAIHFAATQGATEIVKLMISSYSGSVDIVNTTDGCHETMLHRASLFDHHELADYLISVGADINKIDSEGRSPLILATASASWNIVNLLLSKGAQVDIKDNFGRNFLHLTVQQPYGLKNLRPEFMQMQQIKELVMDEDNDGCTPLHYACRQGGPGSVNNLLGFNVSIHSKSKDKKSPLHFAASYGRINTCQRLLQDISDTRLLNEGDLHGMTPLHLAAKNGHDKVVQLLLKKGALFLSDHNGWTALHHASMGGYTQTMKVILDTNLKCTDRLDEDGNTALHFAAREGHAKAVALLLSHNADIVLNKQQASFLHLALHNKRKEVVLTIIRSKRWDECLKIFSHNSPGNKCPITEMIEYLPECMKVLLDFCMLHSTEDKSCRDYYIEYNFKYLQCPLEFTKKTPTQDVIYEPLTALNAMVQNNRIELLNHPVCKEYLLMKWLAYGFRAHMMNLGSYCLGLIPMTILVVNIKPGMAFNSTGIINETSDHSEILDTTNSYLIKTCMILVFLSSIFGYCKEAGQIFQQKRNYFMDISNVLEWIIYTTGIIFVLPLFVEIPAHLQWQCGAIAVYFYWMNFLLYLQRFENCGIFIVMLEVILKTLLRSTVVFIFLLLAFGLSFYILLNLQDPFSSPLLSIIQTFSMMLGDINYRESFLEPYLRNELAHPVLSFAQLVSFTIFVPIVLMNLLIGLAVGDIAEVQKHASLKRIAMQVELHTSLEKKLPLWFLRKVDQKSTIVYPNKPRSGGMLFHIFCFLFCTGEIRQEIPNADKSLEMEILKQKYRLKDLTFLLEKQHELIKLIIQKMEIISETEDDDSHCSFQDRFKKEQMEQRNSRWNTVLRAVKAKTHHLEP
Experimental: After centrifugation, a pellet of cells was formed in the bottom of the tube separating them from the supernatant solution.
The pelleted cells were re-suspended in 10 ml assay buffer and 90 μl aliquots (˜50,000 cells) per well delivered to a 96-well assay plate containing 10 μl of test compounds ([…]) or buffer control and incubated at room temperature for 30 minutes.

Molecule	Average Ca++ Counts [Counts]	Block of hydrogen peroxide activation of TRPA1	% Reduction of Hydrogen Peroxide TRPA1 Activation [%]
Cc1ccc(C(C)C)cc1O [carvacrol]	3464.5	–	–
COC(=O)c1ccccc1 [methylbenzoate]	3817.0	BLOCK ONLY H2O2/TRPA1	–
CCCCO [n-butyl alcohol]	3009.0	BLOCK ONLY H2O2/TRPA1	57.3
Cc1ccc(C(C)(C)O)cc1 [p-cymen-8-ol]	3476.5	BLOCK ONLY H2O2/TRPA1	50.6
O=C1O[C@H]([C@H](O)CO)C([O-])=C1O.[Na+] [sodium erythorbate]	3204.5	BLOCK ONLY H2O2/TRPA1	54.5
CCC/C=C/C=O [trans-2-Hexenal]	–	BLOCK ONLY H2O2/TRPA1	–
NC(N)=O [urea]	5045.5	BLOCK ONLY H2O2/TRPA1	52.4
CCCCCCCCC1CCC(=O)O1 (stereo not drawn) [γ-Dodecalactone]	–	BLOCK ONLY H2O2/TRPA1	51
desoxycholic acid	3058.5	BLOCK ONLY H2O2/TRPA1	56.6

same assay, conditions: 100 μM antagonist vs 500 μM hydrogen peroxide

Molecule	Block of hydrogen peroxide activation of TRPA1
CCCCCO [amyl alcohol]	BLOCK ONLY H2O2/TRPA1
C/C=C(\C)C(=O)OCc1ccccc1 [benzyl tiglate]	BLOCK ONLY H2O2/TRPA1
CC=CC(=O)O [but-2-enoic acid]	BLOCK ONLY H2O2/TRPA1
CCCCOC(=O)C(C)O (stereo not drawn) [butyl lactate]	BLOCK ONLY H2O2/TRPA1
CCCC=O [butyraldehyde]	BLOCK ONLY H2O2/TRPA1
CCC(C)(O)CCc1ccccc1 (stereo not drawn) [ethyl methyl beta-phenylethyl carbinol]	BLOCK ONLY H2O2/TRPA1
CC12CCC(C1)C(C)(C)C2=O (stereo not drawn) [fenchone]	BLOCK ONLY H2O2/TRPA1
[Cl][Fe]([Cl])[Cl] [ferric chloride]	BLOCK ONLY H2O2/TRPA1
CC1=CCC(C(C)C)=CC1 [gamma-terpinene]	BLOCK ONLY H2O2/TRPA1
CC(=O)C(=O)OCCC(C)C [isoamyl pyruvate]	BLOCK ONLY H2O2/TRPA1
CC(C)COC(=O)C(C)C [isobutyl isobutyrate]	BLOCK ONLY H2O2/TRPA1
CC(C)CCO [isopentyl alcohol]	BLOCK ONLY H2O2/TRPA1
CCCCCC(=O)OC(C)C [isopropyl hexanoate]	BLOCK ONLY H2O2/TRPA1
O=C(O)CC(O)C(=O)O (stereo not drawn) [malic acid]	BLOCK ONLY H2O2/TRPA1
COC(=O)c1ccc(O)cc1 [methyl 4-hydroxybenzoate]	BLOCK ONLY H2O2/TRPA1
CCCCC/C=C\C/C=C\CCCCCCCC(=O)OC [methyl linoleate]	BLOCK ONLY H2O2/TRPA1
OCc1ccccc1 [phenyl-methanol]	BLOCK ONLY H2O2/TRPA1
CC(C)CC(=O)OCCc1ccccc1 [phenylethyl isovalerate]	BLOCK ONLY H2O2/TRPA1
c1ccc2ncccc2c1 [quinoline]	BLOCK ONLY H2O2/TRPA1
CCCCCCC1(C)CCC(=O)O1 (stereo not drawn) [γ-Methyl Decalactone]	BLOCK ONLY H2O2/TRPA1

same assay, conditions: antagonist 100 μM against 200 μM hydrogen peroxide

Molecule	% Reduction of Hydrogen Peroxide TRPA1 Activation [%]
CCCCCCC1(C)CCC(=O)O1 (stereo not drawn) [γ-Methyl Decalactone]	48

same assay, conditions: compound 100 μM against 200 μM hydrogen peroxide; Sets 1-4

Molecule	Average Ca++ Counts [Counts]	% Reduction of Hydrogen Peroxide TRPA1 Activation [%]
SCCc1cnccn1 [2-pyrazinylethanethiol]	1987.5	–
CC(=O)OCC(C)(C)Cc1ccccc1 [alpha,alpha-dimethylhydrocinnamyl acetate]	3367.0	–
C=C(C)c1ccc(C)cc1 [alpha,p-dimethylstyrene]	3735.5	57.2
CCCCCO [amyl alcohol]	3149.0	–
C/C=C(\C)C(=O)OCc1ccccc1 [benzyl tiglate]	2385.0	–
CC=CC(=O)O [but-2-enoic acid]	5193.0	–
CCCCOC(=O)C(C)O (stereo not drawn) [butyl lactate]	5157.0	–
CCCC=O [butyraldehyde]	4725.5	–
CCC(C)(O)CCc1ccccc1 (stereo not drawn) [ethyl methyl beta-phenylethyl carbinol]	2253.5	–
CC12CCC(C1)C(C)(C)C2=O (stereo not drawn) [fenchone]	2761.5	–
[Cl][Fe]([Cl])[Cl] [ferric chloride]	3287.0	53.3
CC1=CCC(C(C)C)=CC1 [gamma-terpinene]	3124.0	–
CC(=O)C(=O)OCCC(C)C [isoamyl pyruvate]	2824.0	–
CC(C)COC(=O)C(C)C [isobutyl isobutyrate]	3383.0	–
CC(C)CCO [isopentyl alcohol]	3778.0	–
CCCCCC(=O)OC(C)C [isopropyl hexanoate]	2862.0	–
O=C(O)CC(O)C(=O)O (stereo not drawn) [malic acid]	5617.5	–
COC(=O)c1ccc(O)cc1 [methyl 4-hydroxybenzoate]	4904.5	–
CCCCC/C=C\C/C=C\CCCCCCCC(=O)OC [methyl linoleate]	3363.5	–
OCc1ccccc1 [phenyl-methanol]	5244.5	–
CC(C)CC(=O)OCCc1ccccc1 [phenylethyl isovalerate]	3291.5	–
c1ccc2ncccc2c1 [quinoline]	3440.0	–

same assay, conditions: compound 100 μM against 200 μM hydrogen peroxide; Sets 1-4; read-out: % Reduction of Hydrogen Peroxide TRPA1 Activation

Molecule	inhibition at 100 µM [%]
SCCc1cnccn1 [2-pyrazinylethanethiol]	81.2
CC(=O)OCC(C)(C)Cc1ccccc1 [alpha,alpha-dimethylhydrocinnamyl acetate]	52.2
CCCCCO [amyl alcohol]	55.3
C/C=C(\C)C(=O)OCc1ccccc1 [benzyl tiglate]	59.4
CC=CC(=O)O [but-2-enoic acid]	51
CCCCOC(=O)C(C)O (stereo not drawn) [butyl lactate]	51.3
CCCC=O [butyraldehyde]	55.4
CCC(C)(O)CCc1ccccc1 (stereo not drawn) [ethyl methyl beta-phenylethyl carbinol]	68
CC12CCC(C1)C(C)(C)C2=O (stereo not drawn) [fenchone]	60.8
CC1=CCC(C(C)C)=CC1 [gamma-terpinene]	55.6
CC(=O)C(=O)OCCC(C)C [isoamyl pyruvate]	59.9
CC(C)COC(=O)C(C)C [isobutyl isobutyrate]	52
CC(C)CCO [isopentyl alcohol]	56.7
CCCCCC(=O)OC(C)C [isopropyl hexanoate]	59.4
O=C(O)CC(O)C(=O)O (stereo not drawn) [malic acid]	47
COC(=O)c1ccc(O)cc1 [methyl 4-hydroxybenzoate]	53.7
CCCCC/C=C\C/C=C\CCCCCCCC(=O)OC [methyl linoleate]	52.2
OCc1ccccc1 [phenyl-methanol]	50.5
CC(C)CC(=O)OCCc1ccccc1 [phenylethyl isovalerate]	53.3
c1ccc2ncccc2c1 [quinoline]	51.2

same assay, conditions: read-out: % Reduction of Hydrogen Peroxide TRPA1 Activation

Molecule	inhibition at 100 µM [%]	inhibition at 400 µM [%]
Cc1ccc(C(C)C)cc1O [carvacrol]	50.8	–
COC(=O)c1ccccc1 [methylbenzoate]	56.2	–
CCC/C=C/C=O [trans-2-Hexenal]	–	52
